Positions of bridges follow the written chain, without caps; N, C: chain ends. Non-standard residues stand in square brackets, D forms with d. Residues, ends and D or L forms follow the SMILES beside them. 2Nal = N[C@@H](Cc1ccc2ccccc2c1)C(=O)O; Dmt = Cc1cc(O)cc(C)c1C[C@H](N)C(=O)O; dOrn = NCCC[C@@H](N)C(=O)O; NMeAib = CNC(C)(C)C(=O)O; Sar = CNCC(=O)O
What was measured:
μ opioid receptors = μ opioid receptors (Cavia porcellus, UniProt P97266); assay: GPI assay: inhibition of electrically evoked contractions of the guinea pig ileum; format: cell-based; settings: means of 3-6 determinations ± SEM, normalized to [Leu5]enkephalin standard, read-out: IC50 in the GPI assay (agonist potency)
Description: (§1) a) Bioassays based on inhibition of electrically evoked contractions of the mouse vas deferens (MVD) and of the guinea pig ileum (GPI). In the GPI assay the opioid effect is primarily mediated by μ opioid receptors, whereas in the MVD assay the inhibition of the contractions is mostly due to interaction with δ opioid receptors.
(§2) The GPI and MVD bioassays were carried out as reported in P. W. Schiller et al., Biochem. Biophys. Res. Commun 85, 1332-1338 (1978) and J. Di Maio et al., J. Med. Chem. 25, 1432-1438 (1982). A log dose-response curve was determined with [Leu^5 ] enkephalin as standard for each ileum and vas preparation, and IC50 values of the compounds being tested were normalized according to A. A. Waterfield et al., Eur. J. Pharmacol. 58, 11-18 (1979). Ke values for the cyclic β-casomorphin analogs with mixed μ agonist/δ antagonist properties (δ antagonist effect) were determined from the ratio of IC50 values (DR) obtained in the presence and absence of a fixed antagonist concentration (a) (Ke =a/(DR-1)) H. W. Kosterlitz & A. J. Watt, Br. J. Pharmacol. 33, 266-276 (1968). These determinations were made with the MVD assay, using three different δ-selective agonists ([Leu^5 ]enkephalin, DPDPE and [D-Ala^2]deltorphin I].

δ opioid receptors = target: T1, δ opioid receptors (Mus musculus, UniProt P32300); assay: MVD assay: inhibition of electrically evoked contractions of the mouse vas deferens (δ antagonist Ke); format: cell-based; settings: means of 3-8 determinations ± SEM; for Ke in the MVD assay, antagonist potency against DPDPE: δ agonist DPDPE; for Ke in the MVD assay, antagonist potency against [D-Ala2]deltorphin I: δ agonist [D-Ala2]deltorphin I; for Ke in the MVD assay, antagonist potency against [Leu5]enkephalin: δ agonist [Leu5]enkephalin
T1 construct: Bioassays Using Isolated Organ Preparations; from tissue; host or cells: isolated mouse vas deferens
Description: as §1, §2

μ opioid receptor = target: T2, μ opioid receptor (Rattus norvegicus, UniProt P33535); assay: μ opioid receptor binding, displacement of [3H]DAMGO from rat brain membranes; settings: [3H]DAMGO 0.7 nM, Cheng-Prusoff, means of three determinations ± SEM
T2 construct: from tissue; host or cells: rat brain membranes (cerebellum removed), Sprague-Dawley
Description: (§3) In the case of κ-ligands guinea pig brain homogenates were used, since the relative proportion of κ-binding sites is higher in guinea pig brain than in rat brain. The experimental procedure being used in our laboratory represents a modified version of the binding assay described by Paternak et al. (Mol. Pharmacol. 11 340-351, (1975)). Male Sprague-Dawley rats (300-350 g) from the Canadian Breeding Laboratories were decapitated and after removal of the cerebellum the brains were homogenized in 30 volumes of ice-cold standard buffer (50 mM Tris-HCl, pH 7.7). After centrifugation at 30,000×g for 30 min at 4° C. the membranes were reconstituted in the original volume of standard buffer and incubated for 30 min at 37° C. (to release bound endogenous ligands). […] The incubation was terminated by filtration through Whatman GF/B filters under vacuum at 4° C. Following two washings with 5 ml portions of ice-cold standard buffer the filters were transferred to scintillation vials and treated with 1 ml Protosol (New England Nuclear) for 30 min prior to the addition of 0.5 ml acetic acid and 10 ml Aquasol (New England Nuclear). After shaking for 30 min the vials were counted at an efficiency of 40-45%. All experiments were performed in duplicates and repeated at least three times. Specific binding of each of the three radioglands was defmed by performing incubations in the presence of cold DAMGO, DSLET and U69,563, respectively, at a concentration of 1 micromolar. Values of half-maximal inhibition (IC50) of specific binding were obtained graphically from semilogarithmic plots. From the measured IC50-values, binding inhibition constants (Ki) were then calculated based on Cheng and Prussoff's equation (Biochem. Pharmacol. 22, 3099-3102 (1973)). Ratios of the Ki -values in the μ-, δ- and κ-representative bindning assays are a measure of the receptor selectivity of the compound under investigation (e.g. Ki^δ/ Ki^μ indicated the selectivity for μ-receptors versus δ-receptors).

δ opioid receptor = target: T3, δ opioid receptor (Rattus norvegicus, UniProt P33533); assay: δ opioid receptor binding, displacement of δ-selective radioligand from rat brain membranes; settings: for Ki^δ/Ki^μ (selectivity for μ versus δ receptors): ratio of binding constants; for Ki: δ-selective radioligand 1.0 nM, Cheng-Prusoff, means of three determinations ± SEM
T3 construct: from tissue; host or cells: rat brain membranes (cerebellum removed), Sprague-Dawley
Description: as §3

T2 sequence (P33535 whole entry): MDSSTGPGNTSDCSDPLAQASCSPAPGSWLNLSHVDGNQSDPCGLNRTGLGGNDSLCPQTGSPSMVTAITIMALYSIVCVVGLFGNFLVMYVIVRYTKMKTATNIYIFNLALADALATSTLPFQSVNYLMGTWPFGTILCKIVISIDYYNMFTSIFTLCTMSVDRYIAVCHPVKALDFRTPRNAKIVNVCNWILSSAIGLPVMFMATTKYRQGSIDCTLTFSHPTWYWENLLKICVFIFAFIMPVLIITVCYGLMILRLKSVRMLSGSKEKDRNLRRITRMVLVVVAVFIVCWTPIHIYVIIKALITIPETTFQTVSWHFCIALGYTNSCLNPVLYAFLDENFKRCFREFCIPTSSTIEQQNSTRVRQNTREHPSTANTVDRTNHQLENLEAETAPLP
T1 sequence (P32300 whole entry): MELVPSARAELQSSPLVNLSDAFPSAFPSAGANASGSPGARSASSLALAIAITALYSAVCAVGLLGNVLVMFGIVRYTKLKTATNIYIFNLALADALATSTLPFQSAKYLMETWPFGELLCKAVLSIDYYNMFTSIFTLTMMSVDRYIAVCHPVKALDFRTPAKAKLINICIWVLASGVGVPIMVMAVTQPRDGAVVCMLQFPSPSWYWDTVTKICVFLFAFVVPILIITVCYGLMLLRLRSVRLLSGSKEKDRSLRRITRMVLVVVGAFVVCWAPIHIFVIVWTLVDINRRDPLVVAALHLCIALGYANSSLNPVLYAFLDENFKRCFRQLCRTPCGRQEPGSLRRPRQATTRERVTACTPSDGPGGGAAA
T3 sequence (P33533 whole entry): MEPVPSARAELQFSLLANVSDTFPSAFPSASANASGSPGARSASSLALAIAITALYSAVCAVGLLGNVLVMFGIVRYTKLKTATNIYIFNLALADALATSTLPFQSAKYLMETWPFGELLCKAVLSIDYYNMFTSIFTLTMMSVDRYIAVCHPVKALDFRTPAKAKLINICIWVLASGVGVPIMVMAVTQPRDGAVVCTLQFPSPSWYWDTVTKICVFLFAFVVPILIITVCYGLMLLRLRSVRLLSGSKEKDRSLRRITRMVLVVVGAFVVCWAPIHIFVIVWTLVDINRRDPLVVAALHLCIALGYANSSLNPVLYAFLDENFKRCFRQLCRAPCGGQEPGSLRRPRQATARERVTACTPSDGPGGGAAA
Sequence of μ opioid receptors (P97266 whole entry, looked up): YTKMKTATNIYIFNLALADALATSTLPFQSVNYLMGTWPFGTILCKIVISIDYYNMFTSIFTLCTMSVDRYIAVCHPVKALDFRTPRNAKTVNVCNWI

Row | SMILES | IC50 (μ opioid receptors) [nM] | Ke in the MVD assay, antagonist potency against DPDPE (δ opioid receptors) | Ke in the MVD assay, antagonist potency against [D-Ala2]deltorphin I (δ opioid receptors) | Ki (μ opioid receptor) [nM] | Ke in the MVD assay, antagonist potency against [Leu5]enkephalin (δ opioid receptors) | Ki^δ/Ki^μ (selectivity for μ versus δ receptors) (δ opioid receptor) | Ki (δ opioid receptor) [nM]
1 | CC(C)[C@H]1NC(=O)[C@H]2CCCN2C(=O)[C@H](Cc2ccc3ccccc3c2)NC(=O)[C@H](NC(=O)[C@@H](N)Cc2ccc(O)cc2)CCCNC1=O [Example 8, H-Tyr-c[-D-Orn-2-Nal-D-Pro-D-Val-]] (HELM PEPTIDE1{Y.[O=C([C@@H](CCCN[*:3])N[*:1])[*:2]].[O=C([C@H](Cc1ccc2ccccc2c1)N[*:1])[*:2]].[dP].[dV]}$PEPTIDE1,PEPTIDE1,2:R3-5:R2$$$V2.0) | 536 | 20.9 ± 1.5 | 26.1 ± 2.8 | – | – | – | –
2 | N[C@@H](Cc1ccc(O)cc1)C(=O)N[C@@H]1CCCNC(=O)CNC(=O)[C@H]2CCCN2C(=O)[C@H](Cc2ccc3ccccc3c2)NC1=O [H-Tyr-c[-D-Orn-2-Nal-D-Pro-Gly-], reference compound] (HELM PEPTIDE1{Y.[O=C([C@@H](CCCN[*:3])N[*:1])[*:2]].[O=C([C@H](Cc1ccc2ccccc2c1)N[*:1])[*:2]].[dP].G}$PEPTIDE1,PEPTIDE1,2:R3-5:R2$$$V2.0) | 384 | 233 ± 28 | 202 ± 24 | 5.89 ± 1.6 | 268 ± 22 | 2.92 | 17.2 ± 4.9
3 | CC1(C)NC(=O)[C@H]2CCCN2C(=O)[C@H](Cc2ccc3ccccc3c2)NC(=O)[C@H](NC(=O)[C@@H](N)Cc2ccc(O)cc2)CCCNC1=O [Example 6, H-Tyr-c[-D-Orn-2-Nal-D-Pro-Aib-]] (HELM PEPTIDE1{Y.[O=C([C@@H](CCCN[*:3])N[*:1])[*:2]].[O=C([C@H](Cc1ccc2ccccc2c1)N[*:1])[*:2]].[dP].[Aib]}$PEPTIDE1,PEPTIDE1,2:R3-5:R2$$$V2.0) | 451 | 31.6 ± 2.9 | 55.8 ± 3.8 | – | – | – | –
4 | N[C@@H](Cc1ccc(O)cc1)C(=O)N[C@@H]1CCCCNC(=O)CNC(=O)[C@H]2CCCN2C(=O)[C@H](Cc2ccc3ccccc3c2)NC1=O [H-Tyr-c[-D-Lys-2-Nal-D-Pro-Gly-], reference compound] (HELM PEPTIDE1{Y.[dK].[O=C([C@H](Cc1ccc2ccccc2c1)N[*:1])[*:2]].[dP].G}$PEPTIDE1,PEPTIDE1,2:R3-5:R2$$$V2.0) | 609 | 305 ± 52 | 305 ± 52 | 17.1 ± 2.6 | 603 ± 174 | 3.66 | 62.6 ± 13.2
5 | CN[C@@H](Cc1ccc(O)cc1)C(=O)N[C@@H]1CCCNC(=O)CNC(=O)[C@H]2CCCN2C(=O)[C@H](Cc2ccc3ccccc3c2)NC1=O [Example 1, Tyr(NMe)-c[-D-Orn-2-Nal-D-Pro-Gly-]] (HELM PEPTIDE1{[meY].[O=C([C@@H](CCCN[*:3])N[*:1])[*:2]].[O=C([C@H](Cc1ccc2ccccc2c1)N[*:1])[*:2]].[dP].G}$PEPTIDE1,PEPTIDE1,2:R3-5:R2$$$V2.0) | 92.5 | 45.9 ± 2.8 | 38.8 ± 5.9 | 1.7 ± 0.15 | 30.8 ± 1.5 | 0.765 | 1.3 ± 0.19
6 | Cc1cc(O)cc(C)c1C[C@H](N)C(=O)N[C@@H]1CCCNC(=O)[C@@H](C)NC(=O)[C@H]2CCCN2C(=O)[C@H](Cc2ccc3ccccc3c2)NC1=O [Example 10, H-Dmt-c[-D-Orn-2-Nal-D-Pro-D-Ala-]] (H-[Dmt][dOrn][2Nal][dP][dA]; lactam 2-C) | 10.4 | 0.577 ± 0.022 | 0.319 ± 0.091 | – | – | – | –
7 | CC[C@@H](C)[C@H]1NC(=O)[C@H]2CCCN2C(=O)[C@H](Cc2ccc3ccccc3c2)NC(=O)[C@H](NC(=O)[C@@H](N)Cc2ccc(O)cc2)CCCNC1=O [Example 9, H-Tyr-c[-D-Orn-2-Nal-D-Pro-D-Ile-]] (HELM PEPTIDE1{Y.[O=C([C@@H](CCCN[*:3])N[*:1])[*:2]].[O=C([C@H](Cc1ccc2ccccc2c1)N[*:1])[*:2]].[dP].[dI]}$PEPTIDE1,PEPTIDE1,2:R3-5:R2$$$V2.0) | 815 | 4.88 ± 0.94 | 7.63 ± 1.48 | – | – | – | –
8 | CN1CC(=O)NCCC[C@@H](NC(=O)[C@@H](N)Cc2ccc(O)cc2)C(=O)N[C@@H](Cc2ccc3ccccc3c2)C(=O)N2CCC[C@@H]2C1=O [Example 2, H-Tyr-c[-D-Orn-2-Nal-D-Pro-Sar-]] (HELM PEPTIDE1{Y.[O=C([C@@H](CCCN[*:3])N[*:1])[*:2]].[O=C([C@H](Cc1ccc2ccccc2c1)N[*:1])[*:2]].[dP].[Sar]}$PEPTIDE1,PEPTIDE1,2:R3-5:R2$$$V2.0) | 159 | 11.2 ± 2.1 | 7.81 ± 1.90 | 14.8 ± 0.7 | 17.0 ± 3.60 | 0.163 | 2.41 ± 0.34
9 | Cc1cc(O)cc(C)c1C[C@H](N)C(=O)N[C@@H]1CCCNC(=O)CN(C)C(=O)[C@H]2CCCN2C(=O)[C@H](Cc2ccc3ccccc3c2)NC1=O [Example 4, H-Dmt-c[-D-Orn-2-Nal-D-Pro-Sar-]] (H-[Dmt][dOrn][2Nal][dP][Sar]; lactam 2-C) | 14.5 | 16.4 | – | – | – | – | –
10 | CN1C(=O)[C@H]2CCCN2C(=O)[C@H](Cc2ccc3ccccc3c2)NC(=O)[C@H](NC(=O)[C@@H](N)Cc2ccc(O)cc2)CCCNC(=O)C1(C)C [Example 7, H-Tyr-c[-D-Orn-2-Nal-D-Pro-MeAib-]] (H-Y[dOrn][2Nal][dP][NMeAib]; lactam 2-C) | 228 | 370 ± 48 | 480 ± 84 | 29.2 ± 5.2 | – | 0.366 | 10.7 ± 5.5
11 | C[C@H]1NC(=O)[C@H]2CCCN2C(=O)[C@H](Cc2ccc3ccccc3c2)NC(=O)[C@H](NC(=O)[C@@H](N)Cc2ccc(O)cc2)CCCNC1=O [Example 5, H-Tyr-c[-D-Orn-2-Nal-D-Pro-D-Ala-]] (HELM PEPTIDE1{Y.[O=C([C@@H](CCCN[*:3])N[*:1])[*:2]].[O=C([C@H](Cc1ccc2ccccc2c1)N[*:1])[*:2]].[dP].[dA]}$PEPTIDE1,PEPTIDE1,2:R3-5:R2$$$V2.0) | 600 | 5.35 ± 0.42 | 5.99 ± 1.30 | 72 ± 22 | – | 0.0105 | 0.755 ± 0.125
12 | Cc1cc(O)cc(C)c1C[C@H](N)C(=O)N[C@@H]1CCCNC(=O)CNC(=O)[C@H]2CCCN2C(=O)[C@H](Cc2ccc3ccccc3c2)NC1=O [Example 3, H-Dmt-c[-D-Orn-2-Nal-D-Pro-Gly-]] (H-[Dmt][dOrn][2Nal][dP]G; lactam 2-C) | 7.88 | 2.13 ± 0.51 | 3.37 ± 0.59 | 0.46 ± 0.022 | 3.74 ± 1.00 | 0.993 | 0.457 ± 0.022
